In brackets after ≈: the same amount, converted by molar mass. Where two headings read alike, the source gives them in different places.
Legend:
Assay type in all cases: cell-based
S. pyogenes ATCC 19615 = test: MIC against S. pyogenes ATCC 19615
E. coli ATCC 25922 = test: MIC against E. coli ATCC 25922
S. aureus ATCC 29213 = test: MIC against S. aureus ATCC 29213
E. faecalis ATCC 29212 = test: MIC against E. faecalis ATCC 29212
S. pneumoniae ATCC 49619 = test: MIC against S. pneumoniae ATCC 49619
E. coli MP-9 ΔTolC = test: MIC against E. coli MP-9 ΔTolC
K. pneumoniae ATCC 10031 = test: MIC against K. pneumoniae ATCC 10031
S. aureus BAA 977 iErmA = test: MIC against S. aureus BAA 977 iErmA; conditions: Staphylococcus aureus, BAA977
[1] = test system: E. coli MP-74 LptD mutant; test: MIC against E. coli MP-74 LptD mutant
[2] = test system: S. aureus MP-549 msr(a) USA 300; test: MIC against S. aureus MP-549 msr(a) USA 300
H. influenzae ATCC 49247 = test: MIC against H. influenzae ATCC 49247
[3] = Streptococcus pyogenes, ATCC19615, S. pyogenes ATCC 19615, read-out: MIC
[4] = Escherichia coli, ATCC25922, read-out: MIC
[5] = Staphylococcus aureus, ATCC29213, S. aureus ATCC 29213, read-out: MIC
[6] = Enterococcus faecalis, ATCC29212, E. faecalis ATCC 29212, read-out: MIC
[7] = Streptococcus pneumoniae, ATCC49619, S. pneumoniae ATCC 49619, read-out: MIC
[8] = Klebsiella pneumoniae, ATCC10031, read-out: MIC
[9] = Staphylococcus aureus, USA300, S. aureus MP-549 msr(a) USA 300
[10] = Haemophilus influenzae, ATCC49247, H. influenzae ATCC 49247, read-out: MIC

SMILES	MIC (S. pyogenes ATCC 19615; [3]) [µg/mL]	MIC (E. coli ATCC 25922; [4]) [µg/mL]	MIC (S. aureus ATCC 29213; [5]) [µg/mL]	MIC (E. faecalis ATCC 29212; [6]) [µg/mL]	MIC (S. pneumoniae ATCC 49619; [7]) [µg/mL]	MIC (E. coli MP-9 ΔTolC; Escherichia coli) [µg/mL]	MIC (K. pneumoniae ATCC 10031; [8]) [µg/mL]	MIC ([1]; Escherichia coli) [µg/mL]	MIC [2, 9] [µg/mL]	MIC (H. influenzae ATCC 49247; [10]) [µg/mL]	further results
CCC[C@@H]1C[C@@H](C(=O)N[C@H](CN(C)c2ccc(-c3cccnc3)cc2)[C@H]2OC(SC)[C@H](O)C(O)C2O)N(C)C1 (stereo partly shown) [FSA-215009]	32 (≈ 57.3 µM)	> 64	64 (≈ 115 µM)	> 64	64 (≈ 115 µM)	–	–	–	–	–	–
CCC[C@@H]1C[C@@H](C(=O)N[C@H](Cn2cc(-c3ccnc(N)n3)nn2)[C@H]2OC(SC)[C@H](O)C(O)C2O)N(C)C1 (stereo partly shown) [FSA-215011]	> 64	> 64	> 64	> 64	2 (≈ 3.73 µM)	–	–	–	–	–	–
CCC[C@@H]1C[C@@H](C(=O)N[C@H]([C@H](C)NCc2ccc(F)cc2)[C@H]2OC(SC)[C@H](O)C(O)C2O)N(C)C1 (stereo partly shown) [FSA-215025d]	1 (≈ 1.95 µM)	> 64	4 (≈ 7.79 µM)	> 64	2 (≈ 3.89 µM)	> 64	> 64	–	–	–	MIC (S. aureus BAA 977 iErmA): 4 µg/mL (≈ 7.79 µM)
CCC[C@@H]1C[C@@H](C(=O)N[C@H]([C@H](C)NC2CC2)[C@H]2OC(SC)[C@H](O)C(O)C2O)N(C)C1 (stereo partly shown) [FSA-215028c]	8 (≈ 18 µM)	> 64	64 (≈ 144 µM)	> 64	16 (≈ 35.9 µM)	> 64	> 64	–	–	–	MIC (S. aureus BAA 977 iErmA): 32 µg/mL (≈ 71.8 µM)
CCC[C@@H]1C[C@@H](C(=O)N2CCC[C@@H]2[C@H]2OC(SC)[C@H](O)C(O)C2O)N(C)C1 (stereo partly shown) [FSA-216092]	> 64	> 64	> 64	> 64	> 64	> 64	> 64	> 64	> 64	> 64	–
CCC[C@@H]1C[C@@H](C(=O)N[C@H]([C@H]2C=CCC2)[C@H]2OC(SC)[C@H](O)C(O)C2O)N(C)C1 (stereo partly shown) [FSA-217003]	0.5 (≈ 1.17 µM)	> 64	1 (≈ 2.33 µM)	64 (≈ 149 µM)	0.5 (≈ 1.17 µM)	> 64	> 64	> 64	1 (≈ 2.33 µM)	> 64	–
C=CC(C)(C)[C@@H](NC(=O)[C@@H]1C[C@@H](CCC)CN1C)[C@H]1OC(SC)[C@H](O)C(O)C1O (stereo partly shown) [FSA-217009]	0.12 (≈ 0.279 µM)	> 64	0.25 (≈ 0.581 µM)	64 (≈ 149 µM)	0.5 (≈ 1.16 µM)	> 64	> 64	32 (≈ 74.3 µM)	0.25 (≈ 0.581 µM)	64 (≈ 149 µM)	–
C#C[C@@H](NC(=O)[C@@H]1C[C@@H](CCC)CN1C)[C@H]1OC(SC)[C@H](O)C(O)C1O (stereo partly shown) [FSA-217031]	8 (≈ 20.7 µM)	> 64	64 (≈ 166 µM)	64 (≈ 166 µM)	4 (≈ 10.3 µM)	> 64	> 64	> 64	32 (≈ 82.8 µM)	> 64	–
CCC[C@@H]1C[C@@H](C(=O)N[C@H]([C@@H]2CCCC2N)[C@H]2OC(SC)[C@H](O)C(O)C2O)N(C)C1 (stereo partly shown) [FSA-217045a]	> 64	> 64	> 64	> 64	64 (≈ 144 µM)	> 64	> 64	> 64	> 64	> 64	–
CCC[C@@H]1C[C@@H](C(=O)N[C@H]([C@@H]2CCCC2N)[C@H]2OC(SC)[C@H](O)C(O)C2O)N(C)C1 (stereo partly shown) [FSA-217045b]	–	–	–	–	–	–	–	–	–	–	MIC (E. coli MP-9 ΔTolC): >64 µg/mL; MIC (S. pyogenes ATCC 19615; S. pyogenes ATCC 19615): >64 µg/mL; MIC [1]: >64 µg/mL; MIC (E. coli ATCC 25922): >64 µg/mL; MIC ([2]; S. aureus MP-549 msr(a) USA 300): >64 µg/mL; MIC (S. aureus ATCC 29213; S. aureus ATCC 29213): >64 µg/mL; MIC (H. influenzae ATCC 49247; H. influenzae ATCC 49247): >64 µg/mL; MIC (E. faecalis ATCC 29212; E. faecalis ATCC 29212): >64 µg/mL; MIC (K. pneumoniae ATCC 10031): >64 µg/mL; MIC (S. pneumoniae ATCC 49619; S. pneumoniae ATCC 49619): 32 µg/mL (≈ 71.8 µM)
CCC[C@@H]1C[C@@H](C(=O)N[C@H](CNC23CC(C2)C3)[C@H]2OC(SC)[C@H](O)C(O)C2O)N(C)C1 (stereo partly shown) [FSA-2140836]	> 64	> 64	> 64	> 64	> 64	–	–	–	–	–	–
